Data reported in patent publication US20240122941A1, “THERAPY BASED ON SYNTHETIC LETHALITY IN SWI/SNF COMPLEX-DYSFUNCTION CANCER” (NATIONAL CANCER CENTER, priority 2020, published 2024).
pIC50: −log10 of the molar value. Like-named read-outs stand apart in the source and are kept apart here.

Tests used:
[1] = tested on: H1693 cells (pulmonary adenocarcinoma derived, SMARCA4 deficient); assay: Cell growth suppression experiment (CellTiter-Glo), H1693 cells; type: cell-based; details: Homo sapiens, NCI-H1693, 72 h, cultured for 3 days
Procedure: (§1) Cytotoxic activity of a CBP/P300 inhibitor on SMARCA4 deficient cells, i.e., H1693 cells (pulmonary adenocarcinoma derived) and H1819 cells (pulmonary adenocarcinoma derived), and SMARCA4 wild-type cells, i.e., H647 cells.
(§2) H1693 cells, H1819 cells, and H647 cells were obtained from the ATCC. The H1693 cells and H647 cells were cultured under 5% CO 2 conditions at 37° C. in a 10% fetal bovine serum and 1% penicillin/streptomycin-containing RPMI1640 medium. H1819 cells were cultured under 5% CO2 conditions at 37° C. in a 5% fetal bovine serum and 1% penicillin/streptomycin-containing RPMI1640 medium.
(§3) A 384-well plate was seeded with 500 cells per well. […] After completion of culture, the cell survival rate was measured using CellTiter-Glo Luminescent Cell Viability Assay (Promega, G7570).

[2] = tested on: SMARCA4 deficient cells, i.e., H1693 cells and H1819 cells; assay: Cell growth suppression experiment, SMARCA4 deficient cells (summary of Example 11); type: cell-based; details: result in words
Procedure: as §1, §2, §3

[3] = tested on: JMU-RTK-2+SMARCB1 cells (JMU-RTK-2 cells overexpressing SMARCB1); assay: Selectivity in cell growth suppression, JMU-RTK-2+SMARCB1 cells; details: read-out: JMU-RTK-2 + SMARCB1 IC50
[4] = tested on: ARID1 deficient cancer cell group versus ARID1 wild-type cell group; assay: Experiment comparing sensitivity depending on the presence/absence of ARID1; type: cell-based; details: 6 days culture, CellTiter-Glo, FIG. 12; result in words
From the text: Cytotoxic activity of a CBP/P300 inhibitor on ARID1 deficient cancer cells, i.e., A2780 cells (ovarian cancer derived), RMG-V cells (ovarian cancer derived), TOV21G cells (ovarian cancer derived), and OVISE cells (ovarian cancer derived), and ARID1 wild-type cells, i.e., H1048 cells, H460 cells, 786-O cells, H2228 cells, H2009 cells, and H358 cells, was compared.

[5] = tested on: H460 cells (pulmonary adenocarcinoma derived, SMARCA2/A4 wild-type); assay: Cell growth suppression experiment (CellTiter-Glo), H460 cells; type: cell-based; details: for pIC50: cultured for 6 days, CellTiter-Glo;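 on all read-outs here: luminescent viability read-out, compound added one day after seeding at 0.1% final DMSO, cells grown in DMEM-F12 with 10% fetal bovine serum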
[6] = tested on: H1819 cells (pulmonary adenocarcinoma derived, SMARCA4 deficient); assay: Cell growth suppression experiment (CellTiter-Glo), H1819 cells; type: cell-based; details: NCI-H1819, 72 h, cultured for 3 days
Procedure: as §1, §2, §3

[7] = tested on: SMARCB1 deficient cells, i.e., G-401 cells, G-402 cells, and CHLA-06-ATRT cells; assay: Cell growth suppression experiment, SMARCB1 deficient cells (summary of Example 1); details: G-401, G-402 and CHLA-06-ATRT cells versus 786-O cells; result in words
[8] = tested on: G-401 cells (malignant rhabdoid tumor derived, SMARCB1 deficient); assay: Cell growth suppression experiment (CellTiter-Glo), G-401 cells; details: read-out: IC50 G-401
[9] = tested on: SMARCA2/A4 deficient cells, i.e., H23 cells, DMS114 cells, and TOV112D cells; assay: Cell growth suppression experiment, SMARCA2/A4 deficient cells (summary of Example 8); type: cell-based; details: H23, DMS114 and TOV112D cells versus H460 cells; result in words
Procedure: Cytotoxic activity of a CBP/P300 on SMARCA2/A4 deficient cells, i.e., H23 cells (pulmonary adenocarcinoma derived), TOV112D cells (small cell ovarian cancer derived), and DMS114 cells (small cell lung cancer derived), and SMARCA2/A4 wild-type cells, i.e., H460 cells (pulmonary adenocarcinoma derived) was compared.
H23 cells, TOV112D cells, DMS114 cells, and H460 cells were cultured under 5% CO2 conditions at 37° C. in a 10% fetal bovine serum and 1% penicillin/streptomycin-containing DMEM-F12 medium.
Cells were seed on a 96-well plate at 250 to 500 cells per well. […] After completion of culture, the cell survival rate was measured using CellTiter-Glo Luminescent Cell Viability Assay (Promega, G770).

[10] = tested on: H23 cells (pulmonary adenocarcinoma derived, SMARCA2/A4 deficient); assay: Cell growth suppression experiment (CellTiter-Glo), H23 cells; type: cell-based; details: cultured for 6 days, CellTiter-Glo;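 further: compounds tested as CBP/P300 agents, added one day after plating in 96-well plates with DMEM-F12 plus 10% fetal bovine serum, 0.1% DMSO final, luminescent viability read-out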
[11] = tested on: JMU-RTK-2 cells (malignant rhabdoid tumor derived, SMARCB1 deficient); assay: Selectivity in cell growth suppression, JMU-RTK-2 cells; details: read-out: JMU-RTK-2 IC50
[12] = tested on: DMS114 cells (small cell lung cancer derived, SMARCA2/A4 deficient); assay: Cell growth suppression experiment (CellTiter-Glo), DMS114 cells; type: cell-based; details: DMS114 cells, cultured for 6 days, CellTiter-Glo
[13] = tested on: CHLA-06-ATRT cells (atypical teratoid/rhabdoid tumor derived, SMARCB1 deficient); assay: Cell growth suppression experiment (CellTiter-Glo), CHLA-06-ATRT cells; details: 72 h, read-out: IC50 CHLA-06-ATRT
[14] = tested on: 786-O cells (renal cancer derived, SMARCB1 wild-type); assay: Cell growth suppression experiment (CellTiter-Glo), 786-O cells; details: for pIC50: read-out: IC50 786-O
[15] = tested on: H647 cells (SMARCA4 wild-type); assay: Cell growth suppression experiment (CellTiter-Glo), H647 cells; type: cell-based
Procedure: as §1, §2, §3

[16] = tested on: TOV112D cells (small cell ovarian cancer derived, SMARCA2/A4 deficient); assay: Cell growth suppression experiment (CellTiter-Glo), TOV112D cells; type: cell-based; details: cultured for 6 days, CellTiter-Glo;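 further: luminescent viability read-out of TOV112D cells grown in DMEM-F12 with 10% fetal bovine serum, compound exposure starting one day after plating, DMSO at 0.1% final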
[17] = tested on: SMARCB1 deficient cell group versus SMARCB1 wild-type cell group; assay: Experiment comparing sensitivity depending on the presence/absence of SMARCB1; type: cell-based; details: 6 days culture, CellTiter-Glo, FIG. 3; result in words
From the text: Cytotoxic activity of a CBP/P300 inhibitor on SMARCB1 deficient cells, i.e., G-401 cells (malignant rhabdoid tumor derived), G-402 cells (malignant rhabdoid tumor derived), JMU-RTK-2 cells (malignant rhabdoid tumor derived), and HS-EU-1 cells (epithelioid sarcoma derived), and SMARCB1 wild-type cells, i.e., 786-O cells (renal cancer derived), VMRC-RCZ cells (renal cancer derived), Caki-1 cells (renal cancer derived), H446 cells (lung cancer derived), ES2 cells (ovarian cancer derived), H460 cells (lung cancer derived), H2228 cells (lung cancer derived), HEK293T cells (normal kidney tissue derived), and H358 cells (lung cancer derived) was compared.

[18] = tested on: G-402 cells (malignant rhabdoid tumor derived, SMARCB1 deficient); assay: Cell growth suppression experiment (CellTiter-Glo), G-402 cells; details: Homo sapiens, G-402, 72 h, read-out: IC50 G-402

## CNC(=O)Cn1cc(-c2ccc3c(c2)C(F)CC32NC(=O)N(CC(=O)N(Cc3ccc(F)cc3)[C@@H](C)C(F)(F)F)C2=O)cn1 (single isomer, unassigned) [Compound 4]
[1]
  pIC50: 6.89
[2]
  cell growth suppression effect on SMARCA4 deficient cells: selective and potent cell growth suppression effect
[3]; JMU-RTK-2+SMARCB1 cells, cultured for 6 days, CellTiter-Glo
  pIC50: 5.85
[4]
  IC50 value for the ARID1 deficient cancer cell group compared with the ARID1 wild-type cell group: less than the IC50 value for the ARID1 wild-type cell group
[5]; 10 μM, 6 days
  cell survival rate (%) at treatment with 10 μM, H460: 78%
[5]
  pIC50: < 5.00
[6]
  pIC50: 5.27
[7]
  cell growth suppression effect on SMARCB1 deficient cells: selective and potent Cell growth suppression effect
[8]; G-401 cells, cultured for 3 days, CellTiter-Glo cell survival
  pIC50: 7.74
[9]
  cell growth suppression effect on SMARCA2/A4 deficient cells: particularly selective and potent cell growth suppression effect
[10]
  pIC50: 6.61
[11]; JMU-RTK-2 cells, cultured for 6 days, CellTiter-Glo
  pIC50: 8.00
[12]
  pIC50: 7.43
[13]
  pIC50: 6.74
[14]; 786-O cells, 10 μM (maximum treatment concentration), 3 days
  cell survival rate (%) at treatment with 10 μM, 786-O: 93%
[14]; 786-O cells, cultured for 3 days, CellTiter-Glo cell survival
  pIC50: < 5.00
[15]; H647 cells, 10 μM, 3 days
  cell survival rate (%) at treatment with 10 μM, H647: 60%
[15]; Homo sapiens, NCI-H647, 72 h, H647 cells, cultured for 3 days, CellTiter-Glo
  pIC50: < 5.00
[15]; result in words
  cell growth suppression effect on SMARCA4 expressing H647 cells: hardly any cell growth suppression effect
[16]
  pIC50: 6.85

## CNC(=O)Nc1ccc2c(c1)CC[C@]21OC(=O)N(CC(=O)N(Cc2ccc(F)cc2)[C@@H](C)C(F)(F)F)C1=O [Compound 16]
[17]
  IC50 value for the SMARCB1 deficient cell group compared with the SMARCB1 wild-type cell group: less than the IC50 value for the SMARCB1 wild-type cell group
[3]; 144 h
  pIC50: 4.89
[4]
  IC50 value for the ARID1 deficient cancer cell group compared with the ARID1 wild-type cell group: less than the IC50 value for the ARID1 wild-type cell group
[5]; Homo sapiens, NCI-H460, 144 h, 10 μM, 6 days, read-out: cell survival rate (%) at treatment with 10 μM, H460
  viability at 10 µM: 62%
[5]; Homo sapiens, NCI-H460, 144 h
  pIC50: < 5.00
[7]
  cell growth suppression effect on SMARCB1 deficient cells: selective and potent Cell growth suppression effect
[8]; Homo sapiens, G-401, 72 h
  pIC50: 6.46
[9]
  cell growth suppression effect on SMARCA2/A4 deficient cells: particularly selective and potent cell growth suppression effect
[10]; Homo sapiens, NCI-H23, 144 h
  pIC50: 6.06
[11]; 144 h
  pIC50: 6.89
[12]; Homo sapiens, DMS-114, 144 h
  pIC50: 6.55
[14]; Homo sapiens, 786-0, 72 h
  pIC50: < 5.00
[14]; Homo sapiens, 786-0, 72 h, read-out: cell survival rate (%) at treatment with 10 μM, 786-O
  viability at 10 µM: 94%
[16]; Homo sapiens, 144 h
  pIC50: 6.36
[18]
  pIC50: 5.05
